Source: US20240262783A1, “PHARMACEUTICAL SALT OF FINGOLIMOD, PREPARATION METHOD, PHARMACEUTICAL COMPOSITION AND USE THEREOF” (SHANGHAI BOCIMED PHARMACEUTICAL CO., LTD., priority 2021, published 2024)
In brackets after ≈: the same amount, converted by molar mass. Where a name gives a salt, the structure may show the parent alone. Read-outs that look alike come from different tables or passages of the source.

What was measured:
[1] = Comparison of solid state stability (related substances by HPLC); type: physicochemical; details: for Solid state stability, total related substances (in words): stood in high temperature, high humidity, accelerated, illumination and long-term conditions for 10 d
Experimental: Method for Detecting Related Substances by HPLC [table] The crystalline form 1 of Fingolimod 1-hydroxy-2-naphthoate prepared in Example 14, the crystalline form A of Fingolimod embonate prepared in Example 3, and Fingolimod hydrochloride were stood in a high temperature (60° C.)condition, a high humidity (25° C./90% RH) condition, an accelerated (40° C./75% RH) condition, an illumination (1.2× 10^6 Lux·hr) condition, and a long-term (25° C./60% RH) condition, and samples were taken on day 0, day 5, and day 10 for related substance detection by HPLC.

[2] = Comparison of solubility (shaken at 37° C. for 24 h, HPLC); type: physicochemical; details: for solubility at 24 h: 37 °C, thermodynamic from solid; for Solubility: 24 h
Experimental: The crystalline form 1 of Fingolimod 1-hydroxy-2-naphthoate prepared in Example 14, the crystalline form B of Fingolimod embonate prepared in Example 2, Fingolimod hydrochloride and the Fingolimod free base prepared in Example 12 were added to corresponding media described below. The mixtures were shaken at 37° C. for 24 h and filtered through 0.45 μm aqueous-phase filter membranes. The filtrates were collected for determination of solubility by high-performance liquid chromatography. The corresponding media were acetate buffer solutions at pH 3 and pH 5 and phosphate buffer solutions at pH 7 and pH 9, and the water was ultrapure water.

[3] = Pharmacokinetic study in male SD rats (plasma Fingolimod by LC-MS/MS)
Experimental: (§1) Six male SD rats were divided into two groups. […] In the whole study, the animals in the intramuscular injection group were given ad libitum access to food and water, and those in the oral group were fasted overnight before administration and given access to food at 4 h post-dose.
(§2) Collection of plasma sample: about 150 μL of blood was collected from the jugular vein (whole blood was centrifuged within 30 min to isolate plasma) and placed in a tube containing anticoagulant EDTA-K2, and after treatment, plasma was stored in a freezer at −70° C. before use.
(§3) Pretreatment of plasma sample: to 30 μL of plasma sample, 200 μL of internal standard solution (40 ng/mL Glipizide acetonitrile solution) was added; the mixture was vortexed for 1 min and centrifuged at 5800 rpm at 4° C. for 10 min; 100 μL of supernatant was transferred to a new plate 5 μL of the solution was taken for LC-MS/MS.

[4] = male, SD, rat, in vivo, po, 0.1 mg/kg
Experimental: as §1, §2, §3

in vivo = details: male, SD, rat, po, 0.1 mg/kg
Experimental: as §1, §2, §3

[5] = Accelerated (40° C./75% RH), Day 5
[6] = Accelerated (40° C./75% RH), Day 10
[7] = Day 0 (baseline, all conditions)
[8] = High humidity (25° C./90% RH), Day 5
[9] = High humidity (25° C./90% RH), Day 10
[10] = High temperature (60° C.), Day 5
[11] = High temperature (60° C.), Day 10
[12] = Illumination (1.2× 10^6 Lux·hr), Day 5
[13] = Illumination (1.2× 10^6 Lux·hr), Day 10
[14] = Long-term (25° C./60% RH), Day 5
[15] = Long-term (25° C./60% RH), Day 10
[16] = injection group, intramuscular 3 mg/kg

Row | Compound | Changes in total related substances relative to day 0 [1, 5] [%] | Changes in total related substances relative to day 0 [1, 6] [%] | Changes in total related substances relative to day 0 [1, 7] [%] | Changes in total related substances relative to day 0 [1, 8] [%] | Changes in total related substances relative to day 0 [1, 9] [%] | Changes in total related substances relative to day 0 [1, 10] [%] | Changes in total related substances relative to day 0 [1, 11] [%] | Changes in total related substances relative to day 0 [1, 12] [%] | Changes in total related substances relative to day 0 [1, 13] [%] | Changes in total related substances relative to day 0 [1, 14] [%] | Changes in total related substances relative to day 0 [1, 15] [%] | Solubility ([2]; Water (ultrapure), 37° C.) | Solubility ([2]; pH 3 acetate buffer, 37° C.) [µg/mL] | Solubility ([2]; pH 5 acetate buffer, 37° C.) [µg/mL] | Solubility ([2]; pH 7 phosphate buffer, 37° C.) [µg/mL] | Solubility ([2]; pH 9 phosphate buffer, 37° C.) [µg/mL] | Solid state stability, total related substances (in words) [1] | further results
1 | Fingolimod 1-hydroxy-2-naphthoate | −0.09 | −0.07 | 0 | −0.04 | −0.07 | −0.05 | −0.16 | −0.05 | 0.02 | −0.17 | −0.15 | 5.46 µg/mL | 20.07 | 9.17 | 0.54 | 0.58 | remained substantially unchanged | Cmax relative to dose (in words) ([3]; injection group 3 mg/kg versus oral group 0.1 mg/kg): did not increase in proportion to the dose; MRT [3, 16]: 288 h; Time for plasma concentration to reach a relatively steady state [3, 16]: ≤ 1 days; Time plasma concentration was maintained above 0.3 ng/ml [3, 16]: at least 15 days; Time post-dose at which plasma concentration reached the peak value ([3]; injection group, intramuscular 3 mg/kg (Example 18 sample)): 3 h; Solubility in water relative to the solubility of Fingolimod free base ([2]; water): one fourth to one fifth; Solubility in water relative to the solubility of Fingolimod hydrochloride ([2]; water): one thousandth to one twenty-six hundredth
2 | CCCCCCCCc1ccc(CCC(N)(CO)CO)cc1 [Fingolimod free base, reference compound] |  |  |  |  |  |  |  |  |  |  |  | about 23 μg/mL | 5561.36 (≈ 18.1 mM) | 473.53 (≈ 1.54 mM) |  |  |  | 
3 | Fingolimod embonate [listing 1 of 2 here] |  |  |  |  |  |  |  |  |  |  |  | 0.2 µg/mL | 36.18 | 1.75 | 21.26 | 5.8 |  | 
4 | CCCCCCCCc1ccc(CCC(N)(CO)CO)cc1 [Fingolimod] |  |  |  |  |  |  |  |  |  |  |  |  |  |  |  |  |  | Time post-dose at which plasma concentration reached the peak value [4]: 12 h; MRT (in vivo): 12 h

Continued, in another order:

Row | Changes in total related substances relative to day 0 [1, 5] [%] | Changes in total related substances relative to day 0 [1, 6] [%] | Changes in total related substances relative to day 0 [1, 7] [%] | Changes in total related substances relative to day 0 [1, 8] [%] | Changes in total related substances relative to day 0 [1, 9] [%] | Changes in total related substances relative to day 0 [1, 10] [%] | Changes in total related substances relative to day 0 [1, 11] [%] | Changes in total related substances relative to day 0 [1, 12] [%] | Changes in total related substances relative to day 0 [1, 13] [%] | Changes in total related substances relative to day 0 [1, 14] [%] | Changes in total related substances relative to day 0 [1, 15] [%] | Solubility ([2]; Water (ultrapure), 37° C.) | Solubility ([2]; pH 3 acetate buffer, 37° C.) [µg/mL] | Solubility ([2]; pH 5 acetate buffer, 37° C.) [µg/mL] | Solubility ([2]; pH 7 phosphate buffer, 37° C.) [µg/mL] | Solubility ([2]; pH 9 phosphate buffer, 37° C.) [µg/mL] | Compound | Solid state stability, total related substances (in words) [1] | further results
5 | −0.07 | 0.01 | 0 | −0.07 | −0.07 | 0.03 | 0.02 | −0.04 | −0.03 | 0.04 | −0.12 |  |  |  |  |  | CCCCCCCCc1ccc(CCC(N)(CO)CO)cc1 [Fingolimod hydrochloride, reference compound] |  | Behaviour of the salt in the media (in words) [2]: dissociated into the Fingolimod free base; solubility at 24 h ([2]; pH 3, aqueous buffer): > 33500 µg/mL; solubility at 24 h ([2]; pH 5, aqueous buffer): > 15600 µg/mL; solubility at 24 h ([2]; pH 7, aqueous buffer): < 0.15 µg/mL; solubility at 24 h ([2]; pH 9, aqueous buffer): < 0.15 µg/mL; solubility at 24 h ([2]; water): ~14000 µg/mL; Solubility [2]: >13900 µg/mL
6 | 0 | −0.11 | 0 | 0.12 | 0.11 | −0.04 | −0.21 | 0.2 | 0.3 | 0.08 | −0.01 |  |  |  |  |  | Fingolimod embonate [listing 2 of 2 here] | relatively stable in other conditions than the illumination condition where the impurities were slightly increased | 
